Laboratory results as given in patent publication US6515124B2, “Dehydroamino acids” (Hoffman-La Roche Inc., priority 2000, dated 2003).

Tests used:
[1] = system: T lymphocyte proliferation (murine spleen cells); test: Mixed Lymphocyte Reaction (MLR), one-way; format: cell-based, mice; conditions: Mus musculus, T-lymphocyte, light or radiation study, 72 h, C57B1/6 spleen cells with irradiated BALB/c spleen cells; tritiated thymidine incorporation, 3 days
Excerpt: Mixed Lymphocyte Reaction (MLR)
Admixture of murine spleen cells from two different inbred strains of mice induces proliferation of T lymphocytes. The magnitude of T cell proliferation depends on the extent of disparity in the major histocompatibility antigens between the two strains. Splenic T lymphocytes from both strains proliferate due to alloantigen recognition, a process for which the interaction of ICAM-1 on antigen-presenting cells with LFA-1 on lymphocytes is necessary. The ability of antagonists to inhibit T lymphocyte proliferation following recognition of alloantigens was assessed in a one-way MLR, where cells from one strain were irradiated to permit measurement of the proliferative response of cells from the other strain. Spleen cells were washed three times in tissue culture medium (TCM; see below). Fifty microliters of a spleen cell suspension (prepared at 10×10^6 cells/ml in TCM) obtained from C57B1/6 mice were added to an equal number of lethally-irradiated (2000 rads) spleen cells obtained from BALB/c mice in a 96-well U-bottom tissue culture plate (Costar, 3799). One hundred microliters of serial dilutions of antagonists or TCM were added to the spleen cell mixture. The total volume in each well was 200 μL. TCM was RPMI1640 containing 10% heat-inactivated fetal bovine serum, […] L-glutamine, 100 Units/ml each of penicillin and streptomycin and 5×10^−5 M 2-mercaptoethanol. Dilutions of antagonists were prepared in TCM. Plates were incubated in 5% CO2 for 3 days. On the third day, 0.5 μCi of tritiated thymidine (10 μCi/mL) was added to all the wells. Cells were harvested 6 h later on a 96-well plate harvester and the amount of tritiated thymidine incorporated was assessed in a liquid scintillation counter.

[2] = target: T1, LFA-1 binding to immobilized ICAM-1 (Homo sapiens, UniProt P05107+P20701); test: LFA-1/ICAM-1 Protein-Protein Assay (solid-phase ELISA); conditions: 5dICAM-Ig coated plates; membrane-bound LFA-1 from transfected 293 cells
T1 construct: made in house; host or cells: transfected 293 cells (LFA-1)
T1 sequence (P20701 26-1170): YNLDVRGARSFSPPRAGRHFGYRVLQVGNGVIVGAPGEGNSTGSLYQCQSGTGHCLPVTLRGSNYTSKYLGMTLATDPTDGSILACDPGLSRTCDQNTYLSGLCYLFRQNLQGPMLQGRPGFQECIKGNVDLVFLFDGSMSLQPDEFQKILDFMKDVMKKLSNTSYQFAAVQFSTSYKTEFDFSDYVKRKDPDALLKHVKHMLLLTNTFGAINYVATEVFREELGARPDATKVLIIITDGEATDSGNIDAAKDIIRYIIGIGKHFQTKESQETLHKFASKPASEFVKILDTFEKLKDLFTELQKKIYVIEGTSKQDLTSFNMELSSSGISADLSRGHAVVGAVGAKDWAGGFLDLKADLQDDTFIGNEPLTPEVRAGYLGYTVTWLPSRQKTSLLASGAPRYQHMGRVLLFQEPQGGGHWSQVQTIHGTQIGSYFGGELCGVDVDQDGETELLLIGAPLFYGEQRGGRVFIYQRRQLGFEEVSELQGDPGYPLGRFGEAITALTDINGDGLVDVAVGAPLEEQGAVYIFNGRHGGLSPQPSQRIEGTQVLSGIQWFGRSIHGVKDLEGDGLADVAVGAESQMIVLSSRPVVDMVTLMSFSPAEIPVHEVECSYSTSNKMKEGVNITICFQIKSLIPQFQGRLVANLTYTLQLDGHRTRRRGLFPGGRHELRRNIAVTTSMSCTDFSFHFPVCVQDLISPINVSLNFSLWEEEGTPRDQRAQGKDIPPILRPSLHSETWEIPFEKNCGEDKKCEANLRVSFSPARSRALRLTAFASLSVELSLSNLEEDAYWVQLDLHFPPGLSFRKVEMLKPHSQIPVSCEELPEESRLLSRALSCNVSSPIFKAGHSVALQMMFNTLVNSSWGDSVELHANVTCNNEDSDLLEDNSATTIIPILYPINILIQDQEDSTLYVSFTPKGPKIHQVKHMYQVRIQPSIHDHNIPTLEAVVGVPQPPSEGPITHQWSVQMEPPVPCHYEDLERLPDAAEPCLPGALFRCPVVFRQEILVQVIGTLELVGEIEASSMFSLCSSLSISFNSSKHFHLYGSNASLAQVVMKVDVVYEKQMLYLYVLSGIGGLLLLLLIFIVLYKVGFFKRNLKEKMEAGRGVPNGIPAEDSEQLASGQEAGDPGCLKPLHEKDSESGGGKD
T1 sequence (P05107 23-769): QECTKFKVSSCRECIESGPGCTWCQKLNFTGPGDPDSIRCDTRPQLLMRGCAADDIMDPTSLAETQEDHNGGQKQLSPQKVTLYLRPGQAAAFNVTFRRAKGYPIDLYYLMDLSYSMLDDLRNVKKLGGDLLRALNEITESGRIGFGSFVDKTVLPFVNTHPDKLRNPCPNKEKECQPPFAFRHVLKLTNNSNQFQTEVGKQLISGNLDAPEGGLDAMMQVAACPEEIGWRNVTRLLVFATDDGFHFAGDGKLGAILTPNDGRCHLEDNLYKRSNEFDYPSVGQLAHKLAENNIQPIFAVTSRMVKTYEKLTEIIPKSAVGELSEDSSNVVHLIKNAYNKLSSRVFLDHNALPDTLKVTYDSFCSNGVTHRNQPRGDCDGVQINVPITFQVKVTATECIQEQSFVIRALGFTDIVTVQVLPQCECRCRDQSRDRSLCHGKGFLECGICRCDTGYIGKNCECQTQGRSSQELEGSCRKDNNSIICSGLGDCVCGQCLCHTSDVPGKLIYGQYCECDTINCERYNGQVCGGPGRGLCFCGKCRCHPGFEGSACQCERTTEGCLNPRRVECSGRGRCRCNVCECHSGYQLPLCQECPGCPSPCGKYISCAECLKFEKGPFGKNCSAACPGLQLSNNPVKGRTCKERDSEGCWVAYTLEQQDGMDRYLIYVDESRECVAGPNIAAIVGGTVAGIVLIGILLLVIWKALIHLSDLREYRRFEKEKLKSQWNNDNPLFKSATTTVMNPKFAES
Protocol: LFA-1/ICAM-1 Protein-Protein Assay
LFA-1/ICAM-1 antagonist activity, defined as the ability to block LFA-1 binding to immobilized ICAM-1, was quantitated using a solid-phase ELISA. Typically, fusion protein consisting of the entire extracellular domain of human ICAM-1 and the Fc domain of human IgG (5dICAM-Ig) was coated onto 96-well microtiter plates (0.15 μg in 100 μL PBS) overnight at 4° C. The plates were then blocked with 150 μL of 1% BSA/1 mM MnCl2/0.14 M NaCl/20 mM HEPES, pH 7.2 for 1 h at 37° C. and washed 3 times (150 μL each) with Wash Buffer (50 mM Tris, pH 7.4/100 mM NaCl/1 mM MnCl2/0.05% Tween 20). Stock solutions (100 μM in 100% DMSO) of test compounds were diluted 50 fold with 150 μL of Binding Buffer (0.05% BSA/0.05% Tween 20/1 mM MnCl2/0.14 M NaCl/20 mM HEPES, pH 7.2) plus 10% DMSO. A series of 1:4 dilutions were performed to achieve a concentration range of 0.12 nM-2 μM. Fifty μL per well of each dilution was added to the ICAM-1 coated plates, followed by 50 μL per well of membrane-bound LFA-1 (280 ng/mL in Binding Buffer) derived from transfected 293 cells. The plates were shaken vigorously for 1 min (room temperature) and gently for 2 h (37° C.). After incubation, the plates were washed 3 times (150 μL each) with Wash Buffer. Mouse anti-human integrin β2 monoclonal antibody was added (100 μL/well, 1 μg/ml in Binding Buffer) and allowed to incubate for 1 h (37° C.) with gentle agitation. The plates were then washed 3 times with Wash Buffer. HRP-conjugated goat anti-mouse IgG (100 μL/well, 1:1500 dilution in Binding Buffer) was added to each well, followed by incubation for 1 h (37° C.) and concluded by three washes (150 μL each) with Wash Buffer. TMB solution (100 μL per well) was added for color development (10 min). The reaction was stopped by the addition of 100 μL of 1M H3PO4 to each well. The plates were then read at 450 nm.

Q: For `Cc1nc(C)c(/C=C(\NC(=O)c2ccc(C(=O)CCc3cccc(O)c3)cc2Cl)C(=O)O)s1` [Example 295], which IC50 [1] is on record?
A: Its IC50 is 10000 nM.

Q: And the IC50 [2]?
A: The IC50 was 3 nM.

Q: Which results are given for `CC(C)c1ncsc1/C=C(\NC(=O)c1ccc(C(=O)NCc2cccc(O)c2)cc1Cl)C(=O)O` [Example 300, (Z)-2-[[2-Chloro-4-[[(3-hydroxybenzyl)amino]carbonyl]benzoyl]amino]-3-[4-(1-methylethyl)thiazol-5-yl]propenoic Acid]?
A: IC50 [1]: 21500 nM; IC50 [2]: 32.5 nM

Q: Which results are given for `Cc1nc(C(C)C)sc1/C=C(\NC(=O)c1ccc(C(=O)NCc2cccc(O)c2)cc1Cl)C(=O)O` [Example 301, 2-[[2-Chloro-4-[[(3-hydroxybenzyl)amino]carbonyl]benzoyl]amino]-3-[2-(1-methylethyl)-4-methylthiazol-5-yl]propenoic Acid]?
A: IC50 [1]: 4250 nM; IC50 [2]: 3.03 nM

Q: What does the source list for `CCc1nc(C)c(/C=C(\NC(=O)c2ccc(C(=O)NCc3cccc(O)c3)cc2Cl)C(=O)O)s1` [Example 304, (Z)-2-[[2-Chloro-4-[[(3-hydroxybenzyl)amino]carbonyl]benzoyl]amino]-3-(2-ethyl-4-methylthiazole-5-yl)propenoic Acid]?
A: melting point: > 200 °C; IC50 [1]: 2100 nM; IC50 [2]: 3 nM

Q: What does the source list for `Cn1ccc2ccc(/C=C(\NC(=O)c3ccc(C(=O)NCc4cccc(O)c4)cc3Cl)C(=O)O)cc21` [Example 305]?
A: IC50 [1]: 7250 nM; IC50 [2]: 4.13 nM

Q: Which IC50 [1] does the source give for `O=C(O)/C(=C/c1ccccc1)NC(=O)c1ccc(C(=O)NCc2cccc3[nH]ccc23)cc1Cl` [Example 306] here?
A: Its IC50 is 13800 nM.

Q: What about the IC50 [2] of the same molecule?
A: Its IC50 is 10.4 nM.

Q: With `O=C(O)/C(=C/c1ccc2ccccc2c1)NC(=O)c1ccc(C(=O)NCc2cccc3[nH]ccc23)cc1Cl` [Example 307] as the molecule, how does the IC50 [1] read?
A: Its IC50 is 27000 nM.

Q: What about the IC50 [2] of the same molecule?
A: The IC50 was 18.6 nM.

Q: For `O=C(O)/C(=C/c1ccccc1O)NC(=O)c1ccc(C(=O)NCc2cccc3[nH]ccc23)cc1Cl` [Example 309], which IC50 [1] is on record?
A: Its IC50 is 14500 nM.

Q: What about the IC50 [2] of the same molecule?
A: The IC50 was 18.7 nM.

Q: With `Cc1cc(C(=O)NCc2cccc(O)c2)ccc1C(=O)N/C(=C\c1ccccc1)C(=O)O` [Example 311] as the molecule, how does the IC50 [1] read?
A: The IC50 was 10500 nM.

Q: What about the IC50 [2] of the same molecule?
A: Its IC50 is 11.8 nM.

Q: Which IC50 [1] does the source give for `Cc1cc(C(=O)NCc2cccc(O)c2)ccc1C(=O)N/C(=C\c1cnc2ccccc2c1)C(=O)O` [Example 312] here?
A: Its IC50 is 990 nM.

Q: And the IC50 [2]?
A: Its IC50 is 4.7 nM.

Q: For `O=C(O)/C(=C/c1ccc(Br)cc1)NC(=O)c1ccc(C(=O)NCc2cccc(O)c2)cc1Cl` [Example 314, (Z)-3-(4-Bromophenyl)-2-[[2-chloro-4-[[(3-hydroxybenzyl)amino]carbonyl]benzoyl]amino]propenoic Acid], which IC50 [1] is on record?
A: The IC50 was 6100 nM.

Q: And the IC50 [2]?
A: Its IC50 is 3.05 nM.

Q: With `O=C(O)/C(=C/c1cc2c(cc1Cl)OCO2)NC(=O)c1ccc(C(=O)NCc2cccc(O)c2)cc1Cl` [Example 315] as the molecule, how does the IC50 [1] read?
A: Its IC50 is 2500 nM.

Q: And the IC50 [2]?
A: Its IC50 is 1.89 nM.

Q: What does the source list for `Cc1cc(C(=O)NCc2cccc(O)c2)ccc1C(=O)N/C(=C\c1ccc2cc[nH]c2c1)C(=O)O` [Example 316, (Z)-2-[[4-[[(3-Hydroxybenzyl)amino]carbonyl]-2-methylbenzoyl]amino]-3-(1N-indol-6-yl)propenoic Acid]?
A: IC50 [1]: 1150 nM; IC50 [2]: 3 nM

Q: For `Cc1nc(C)c(/C=C(\NC(=O)c2ccc(C(=O)NCc3cccc(N)c3)cc2Br)C(=O)O)s1` [Example 321], which IC50 [1] is on record?
A: The IC50 was 11500 nM.

Q: And the IC50 [2]?
A: The IC50 was 7.52 nM.

Q: With `Nc1cccc(CNC(=O)c2ccc(C(=O)N/C(=C\c3cnc4ccccc4c3)C(=O)O)c(Br)c2)c1` [Example 322] as the molecule, how does the IC50 [1] read?
A: Its IC50 is 4450 nM.

Q: What about the IC50 [2] of the same molecule?
A: The IC50 was 1.74 nM.

Q: Which results are given for `NS(=O)(=O)c1ccc(/C=C(\NC(=O)c2ccc(C(=O)NCc3cccc(O)c3)cc2Cl)C(=O)O)cc1` [Example 323, (Z)-3-(4-Aminosulfonylphenyl)-2-[[2-chloro-4-[[(3-hydroxybenzyl)amino]carbonyl]benzoyl]amino]propenoic Acid]?
A: IC50 [1]: 230 nM; IC50 [2]: 0.84 nM
